Reference: patent US7167801B2, “Method of identifying potential inhibitors of human papillomavirus protein E2 using x-ray atomic coordinates” (Boehringer Ingelheim (Canada) Ltd., priority 2001, dated 2007)

Legend:
[1] = biological target: HPV-11 E2 (E2-dependent binding of E1 to the HPV-11 origin of replication) (Human papillomavirus 11, UniProt P04015); test: E2-dependent E1 origin-binding assay; assay type: biochemical; details: assay of Example 6; read-out: IC50 (inhibitory activity)
Description: E2-Dependent E1 Origin-Binding Assay
This assay was modeled on a similar assay for SV40 T Antigen described by McKay (J. Mol. Biol., 1981,145:471). A 400 bp radiolabeled DNA probe, containing the HPV-11 origin of replication (Chiang et al., 1992, Proc. Natl. Acad. Sci. USA 89:5799) was produced by PCR, using plasmid pBluescript™ SK encoding the origin (nucleotides 7886-61 of the HPV-11 genome in unique BAMH1 site) as template and primers flanking the origin. Radiolabel was incorporated as [^33P]dCTP. Binding assay buffer consisted of: 20 mM Tris pH 7.6, 100 mM NaCl, 1 mM DTT, 1 mM EDTA.
Other reagents used were protein A-SPA beads (type II, Amersham) and K72 rabbit polyclonal antiserum, raised against a peptide corresponding to the C-terminal 14 amino acids of HPV-11 E1. Following the protocol from Amersham, one bottle of beads was mixed with 25 mL of binding assay buffer. For the assay, a saturating amount of K72 antiserum was added to the beads and the mixture was incubated for 1 h, washed with one volume of binding assay buffer, and then resuspended in the same volume of fresh binding assay buffer. […] After an additional hour of incubation at room temperature, the reactions were centrifuged briefly to pellet the beads and the extent of complex formation was determined by scintillation counting on a Packard TopCount™. […]

[2] = biological target: T1, SV40 T Antigen (TAg)-origin complex (Simian virus 40, UniProt P03070); test: SV40 T Antigen-DNA binding assay (counterscreen); assay type: biochemical; details: assay of Example 7, counterscreen
T1 construct: The Large T Antigen: Purchased from Chimerx, at 2.0 mg/mL; purchased Chimerx
T1 sequence (P03070 whole entry, one chain of several): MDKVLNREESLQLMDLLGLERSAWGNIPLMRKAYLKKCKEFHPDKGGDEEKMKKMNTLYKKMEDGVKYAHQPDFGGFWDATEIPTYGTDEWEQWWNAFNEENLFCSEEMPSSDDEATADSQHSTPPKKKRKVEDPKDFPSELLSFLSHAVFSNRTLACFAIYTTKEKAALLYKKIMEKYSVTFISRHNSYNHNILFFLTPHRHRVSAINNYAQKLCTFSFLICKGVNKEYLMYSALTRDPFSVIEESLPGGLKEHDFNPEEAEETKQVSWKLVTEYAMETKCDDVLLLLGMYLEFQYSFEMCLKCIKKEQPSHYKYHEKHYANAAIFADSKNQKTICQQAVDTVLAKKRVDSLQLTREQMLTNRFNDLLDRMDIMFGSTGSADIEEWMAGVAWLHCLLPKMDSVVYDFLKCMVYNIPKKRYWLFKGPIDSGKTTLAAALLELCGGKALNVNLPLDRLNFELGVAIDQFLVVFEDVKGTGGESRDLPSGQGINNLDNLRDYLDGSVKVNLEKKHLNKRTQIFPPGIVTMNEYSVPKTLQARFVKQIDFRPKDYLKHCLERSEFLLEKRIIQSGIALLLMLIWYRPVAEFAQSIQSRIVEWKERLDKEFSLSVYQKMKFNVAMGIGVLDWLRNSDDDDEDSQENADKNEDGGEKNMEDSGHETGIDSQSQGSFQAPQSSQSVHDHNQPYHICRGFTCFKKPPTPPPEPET
Description: SV40 T Antigen-DNA Binding Assay
This assay measures the formation of an SV40 T Antigen (TAg)-origin complex. The assay was developed by R. D. G. McKay (J. Mol. Biol. (1981) 145, 471–488). In principle, it is very similar to the E2-dependent E1-DNA binding assay (Example 6), with TAg replacing E1 and E2, and a radiolabeled SV40 ori probe replacing the HPV ori probe. The assay is used as a counterscreen for the assay of Example 6, since TAg shares functional homology to E1 and E2, but has very low sequence similarity.
The radiolabeled ori-containing DNA probe was made by PCR using pCH110 plasmid (Pharmacia) as a template. This template encodes the SV40 minimal origin of replication at nucleotides 7098-7023. Primers were “sv40-6958sens”=5′-GCCCCTAACTCCGCCCATCCCGC (SEQ ID NO. 7), and “sv40-206anti”=5′-ACCAGACCGCCACGGCTTACGGC (SEQ ID NO. 8). The PCR product was approximately 370 base pairs long and was radiolabeled using 50 μCi/100 μL PCR reaction of dCTP (α-^33P). […]
The protein-DNA complexes were immunocaptured using an α-TAg monoclonal antibody (PAb 101, subtype IgG2a, hybridoma obtained from ATCC and antibody purified in-house) bound to protein A-SPA beads. […] The plates were spun briefly and the precipitated radiolabeled DNA fragments were counted on a TopCount® counter.

Sequence of HPV-11 E2 (E2-dependent binding of E1 to the HPV-11 origin of replication) (P04015 whole entry): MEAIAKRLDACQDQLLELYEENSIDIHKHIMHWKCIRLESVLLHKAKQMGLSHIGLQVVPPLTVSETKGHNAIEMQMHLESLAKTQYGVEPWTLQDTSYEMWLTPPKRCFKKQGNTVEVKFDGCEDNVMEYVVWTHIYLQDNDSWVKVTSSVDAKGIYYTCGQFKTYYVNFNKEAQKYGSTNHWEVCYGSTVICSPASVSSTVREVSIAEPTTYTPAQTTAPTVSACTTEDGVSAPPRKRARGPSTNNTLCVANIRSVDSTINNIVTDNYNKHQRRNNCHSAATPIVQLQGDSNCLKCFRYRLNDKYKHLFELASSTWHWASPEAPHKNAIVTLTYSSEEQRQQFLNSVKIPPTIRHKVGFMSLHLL

Question: `Cc1ccc2c(c1)C(=O)[C@]1(O[C@@H](c3ccc(Cl)c(Cl)c3)[C@@H](C(=O)Nc3ccc(-c4csnn4)cc3)[C@H]1C(=O)[O-])C2=O.[Na+]` (racemic) [Compound L] was tested. Which IC50 [1] did it give?
Answer: 0.18 µM

Question: What about the “Selectivity: activity in the SV40 large T antigen assay” value [2] of the same compound?
Answer: lack of activity (or lower potency)
